# How the values were obtained:
# [1] = target: T1, c-Met (phospho-c-Met) in HT29 cells (Homo sapiens, UniProt P08581); assay: c-Met Cellular Activity/Autophosphorylation Assay, HT29 cells; format: cell-based; conditions: for inhibition at 1 µM: HT-29, 1 μM compound, read-out: c-Met autophosphorylation inhibition score, HT29 Cells (1 μM); for inhibition at 3 µM: HT-29, 3 μM compound, read-out: c-Met autophosphorylation inhibition score, HT29 Cells (3 μM)
# T1 construct: endogenous in cells; host or cells: HT29, A549 (HGF-stimulated), GTL-16
# Outline: (§1)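 HT29 and GTL-16 cells serum-starved 1 h in 0.05% BSA with compound (1-10 μM); A549 serum-starved overnight, compound-treated 1 h, then HGF 50 ng/mL for 15 min. Lysates Western blotted; phospho-c-Met and total c-Met quantified by infrared fluorescence imaging.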
# [2] = target: T2, c-Met (phospho-c-Met) in GTL-16 cells (Homo sapiens, UniProt P08581); assay: c-Met Cellular Activity/Autophosphorylation Assay, GTL-16 cells; format: cell-based; conditions: for inhibition at 1 µM: 1 μM compound, read-out: c-Met autophosphorylation inhibition score, GTL-16 Cells (1 μM); for inhibition at 3 µM: 3 μM compound, read-out: c-Met autophosphorylation inhibition score, GTL-16 Cells (3 μM)
# T2 construct: endogenous in cells; host or cells: HT29, A549 (HGF-stimulated), GTL-16
# T2 sequence (P08581 25-1390): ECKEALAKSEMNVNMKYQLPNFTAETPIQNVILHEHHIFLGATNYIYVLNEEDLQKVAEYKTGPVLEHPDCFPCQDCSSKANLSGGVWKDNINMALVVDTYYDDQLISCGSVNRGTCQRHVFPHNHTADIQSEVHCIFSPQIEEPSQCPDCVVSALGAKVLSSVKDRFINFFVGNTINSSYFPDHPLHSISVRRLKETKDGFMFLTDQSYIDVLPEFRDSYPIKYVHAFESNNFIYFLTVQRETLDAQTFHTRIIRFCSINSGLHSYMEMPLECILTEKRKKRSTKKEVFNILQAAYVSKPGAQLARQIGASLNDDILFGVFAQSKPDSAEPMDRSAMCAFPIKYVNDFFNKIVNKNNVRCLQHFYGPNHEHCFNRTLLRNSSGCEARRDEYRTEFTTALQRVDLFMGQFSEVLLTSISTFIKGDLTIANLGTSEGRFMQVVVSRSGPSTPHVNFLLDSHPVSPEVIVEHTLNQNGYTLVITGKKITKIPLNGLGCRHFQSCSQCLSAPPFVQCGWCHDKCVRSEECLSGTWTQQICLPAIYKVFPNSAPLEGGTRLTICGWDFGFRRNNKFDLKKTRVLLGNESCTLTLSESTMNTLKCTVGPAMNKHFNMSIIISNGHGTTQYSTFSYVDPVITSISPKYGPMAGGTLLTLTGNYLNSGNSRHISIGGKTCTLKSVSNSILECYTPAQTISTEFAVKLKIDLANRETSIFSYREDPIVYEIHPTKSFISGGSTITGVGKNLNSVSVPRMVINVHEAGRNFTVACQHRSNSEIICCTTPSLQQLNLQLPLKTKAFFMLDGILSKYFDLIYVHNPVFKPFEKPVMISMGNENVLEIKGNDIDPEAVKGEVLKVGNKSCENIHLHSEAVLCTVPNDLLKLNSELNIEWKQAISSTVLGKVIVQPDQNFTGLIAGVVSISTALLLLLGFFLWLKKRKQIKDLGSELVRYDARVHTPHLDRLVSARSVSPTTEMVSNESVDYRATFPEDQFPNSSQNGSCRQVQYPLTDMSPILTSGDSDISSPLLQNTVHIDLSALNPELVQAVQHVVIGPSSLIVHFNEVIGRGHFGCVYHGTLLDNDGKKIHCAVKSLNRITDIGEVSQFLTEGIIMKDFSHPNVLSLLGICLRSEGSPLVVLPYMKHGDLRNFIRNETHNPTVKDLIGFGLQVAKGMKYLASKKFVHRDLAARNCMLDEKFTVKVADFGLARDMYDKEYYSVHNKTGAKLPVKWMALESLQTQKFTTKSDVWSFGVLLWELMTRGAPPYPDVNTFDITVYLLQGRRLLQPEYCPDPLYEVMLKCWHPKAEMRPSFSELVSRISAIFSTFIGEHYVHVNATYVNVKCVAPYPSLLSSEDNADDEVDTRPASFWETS
# Experimental: HT29 and GTL-16 cells were serum starved for one hour in media containing 0.05% BSA and varying concentrations of Example compounds (1-10 μM). A549 cells were serum starved overnight in media containing 0.05% BSA then treated for one hour with Example compounds followed by a 15 minute stimulation with 50 ng/mL HGF (Peprotech, Rocky Hill, N.J.), respectively. Samples were resolved by electrophoresis on a 3-8% Tris-Acetate gel (40 ma/gel) and then transferred to a nitrocellulose membrane. Membranes were blocked for one hour at room temperature in Odyssey Blocking Buffer (Licor #927-40000) diluted 1:1 with 1×TBS. Membranes were then co-incubated overnight at 4° C. with primary antibodies [total Met (Cell Signaling, #3127) and Phospho-Met (Biosource, #44-888G) 1:1000 each in Odyssey Blocking Buffer diluted 1:1 with 1×TBS-T 0.05%]. The next day, membranes were washed and co-incubated with secondary antibodies [Goat anti mouse IRDye800 (Rockland, #610-132-121) and Goat anti rabbit Alexa fluor 700 (Molecular Probes, #A21038) 1:10,000] in Odyssey Blocking Buffer diluted 1:1 with 1×TBS-T 0.05% for one hour at room temperature protected from light. Blots were then washed and read on the Odyssey Infrared Imager. Total c-Met signal was visualized at 800 nm detection and phospho-c-Met signal was visualized at 700 nm detection.
# [3] = target: T3, c-Met (cytoplasmic domain) (Homo sapiens, UniProt P08581); assay: c-Met Kinase Assay (ELISA/TRF, PLC-γ substrate); format: biochemical; conditions: 3 μM ATP (Km level); read-out: c-Met Kinase Inhibition (IC50)
# T3 construct: Reactions were initiated with 30 ng/mL c-Met (cytoplasmic domain, Invitrogen Corporation #PV3143); purchased Invitrogen Corporation PV3143
# T3 sequence (P08581 956-1390 limits assumed): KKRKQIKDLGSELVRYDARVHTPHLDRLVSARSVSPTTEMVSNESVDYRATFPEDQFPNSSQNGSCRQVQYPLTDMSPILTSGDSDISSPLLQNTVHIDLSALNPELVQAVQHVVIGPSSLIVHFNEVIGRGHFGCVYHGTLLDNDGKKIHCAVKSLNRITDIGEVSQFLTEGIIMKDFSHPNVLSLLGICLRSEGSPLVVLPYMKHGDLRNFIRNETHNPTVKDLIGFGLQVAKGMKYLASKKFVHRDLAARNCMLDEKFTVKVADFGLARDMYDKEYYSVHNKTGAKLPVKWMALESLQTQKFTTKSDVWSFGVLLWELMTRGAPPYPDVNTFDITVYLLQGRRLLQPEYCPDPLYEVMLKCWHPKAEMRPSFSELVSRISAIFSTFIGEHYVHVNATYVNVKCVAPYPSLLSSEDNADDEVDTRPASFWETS
# Outline: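 Readout is TRF of europium anti-phosphotyrosine (PT66) bound to GST–PLC-γ substrate coated at 10 μg/mL, after a 15 min, 37 °C reaction started with 30 ng/mL c-Met cytoplasmic domain. Percent inhibition plotted against log compound concentration and fitted (variable slope) for IC50.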
# [4] = target: baculovirus-expressed ALK (Homo sapiens, UniProt Q9UM73); assay: ALK Kinase Assay (ELISA/TRF, PLC-γ substrate); format: biochemical; conditions: read-out: ALK Kinase Inhibition (IC50); note: 1 µM ATP (Km level)
# baculovirus-expressed ALK, sequence (Q9UM73 19-1620): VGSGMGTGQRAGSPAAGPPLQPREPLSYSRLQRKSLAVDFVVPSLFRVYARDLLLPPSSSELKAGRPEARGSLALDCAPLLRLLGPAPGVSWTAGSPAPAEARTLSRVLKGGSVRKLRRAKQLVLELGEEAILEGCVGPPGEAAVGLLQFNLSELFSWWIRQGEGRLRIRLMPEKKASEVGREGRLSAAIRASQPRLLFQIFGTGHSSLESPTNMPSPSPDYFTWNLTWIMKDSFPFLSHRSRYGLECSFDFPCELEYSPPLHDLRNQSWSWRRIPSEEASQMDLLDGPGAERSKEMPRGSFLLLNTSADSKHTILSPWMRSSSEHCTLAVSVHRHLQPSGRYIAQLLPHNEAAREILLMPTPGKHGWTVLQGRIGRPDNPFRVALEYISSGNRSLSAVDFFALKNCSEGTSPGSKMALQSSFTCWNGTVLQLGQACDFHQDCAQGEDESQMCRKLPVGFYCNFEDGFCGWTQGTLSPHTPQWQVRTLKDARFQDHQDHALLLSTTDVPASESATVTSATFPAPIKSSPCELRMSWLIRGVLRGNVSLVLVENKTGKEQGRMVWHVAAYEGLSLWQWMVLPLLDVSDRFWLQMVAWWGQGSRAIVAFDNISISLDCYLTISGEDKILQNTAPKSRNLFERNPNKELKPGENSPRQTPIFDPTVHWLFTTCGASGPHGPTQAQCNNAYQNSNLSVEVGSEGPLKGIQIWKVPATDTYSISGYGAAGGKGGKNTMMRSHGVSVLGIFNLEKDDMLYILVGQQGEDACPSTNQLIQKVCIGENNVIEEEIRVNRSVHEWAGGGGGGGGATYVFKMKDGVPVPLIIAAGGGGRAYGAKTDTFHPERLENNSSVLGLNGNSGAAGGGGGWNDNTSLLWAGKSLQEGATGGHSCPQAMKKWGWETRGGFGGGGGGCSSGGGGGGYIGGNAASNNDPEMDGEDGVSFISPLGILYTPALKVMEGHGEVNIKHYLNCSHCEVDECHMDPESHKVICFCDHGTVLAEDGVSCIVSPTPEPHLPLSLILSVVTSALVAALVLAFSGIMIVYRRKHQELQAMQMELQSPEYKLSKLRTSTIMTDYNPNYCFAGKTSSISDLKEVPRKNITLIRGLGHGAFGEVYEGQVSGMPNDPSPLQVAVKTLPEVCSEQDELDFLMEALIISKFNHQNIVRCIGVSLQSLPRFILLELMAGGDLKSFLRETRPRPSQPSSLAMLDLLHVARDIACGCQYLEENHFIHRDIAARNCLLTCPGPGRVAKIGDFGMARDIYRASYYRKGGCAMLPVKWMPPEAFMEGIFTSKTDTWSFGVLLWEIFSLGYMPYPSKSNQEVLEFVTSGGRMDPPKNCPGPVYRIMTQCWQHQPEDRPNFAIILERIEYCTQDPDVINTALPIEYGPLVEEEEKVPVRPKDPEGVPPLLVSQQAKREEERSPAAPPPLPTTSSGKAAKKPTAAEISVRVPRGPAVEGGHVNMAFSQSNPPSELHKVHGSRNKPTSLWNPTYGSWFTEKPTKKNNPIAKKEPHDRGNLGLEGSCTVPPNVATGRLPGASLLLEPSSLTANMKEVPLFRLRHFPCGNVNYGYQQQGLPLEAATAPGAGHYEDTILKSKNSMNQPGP
# Outline: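 IC50 values fitted by nonlinear sigmoidal regression (variable slope) of percent inhibition against log compound concentration. Read-out was TRF of Eu-N1 anti-phosphotyrosine antibody bound to phosphorylated, plate-coated GST-PLC-γ (10 µg/mL). Kinase reaction used ALK at 30 ng/ml for 15 min at 37 °C.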
# [5] = target: T4, c-Met (phospho-c-Met) in A549 cells (Homo sapiens, UniProt P08581); assay: c-Met Cellular Activity/Autophosphorylation Assay, A549 cells (HGF stimulated); format: cell-based; conditions: 50 ng/mL HGF; for inhibition at 1 µM: 1 μM compound, read-out: c-Met autophosphorylation inhibition score, A549 Cells (1 μM); for inhibition at 3 µM: 3 μM compound, read-out: c-Met autophosphorylation inhibition score, A549 Cells (3 μM)
# T4 construct: endogenous in cells; host or cells: HT29, A549 (HGF-stimulated), GTL-16
# Outline: as §1
# [6] = target: T5, NPM-ALK (Homo sapiens, UniProt Q9UM73); assay: ALK Cellular Assay (phospho-NPM-ALK immunoblot / ALK tyrosine phosphorylation ELISA); format: cell-based
# T5 construct: a fusion protein consisting of nucleophosmin (NMP) and the intracellular domain of ALK; the other entry of the earlier key: NPM1 (P06748, Nucleophosmin)
# T5 sequence (Q9UM73 with tags, fused parts or gaps): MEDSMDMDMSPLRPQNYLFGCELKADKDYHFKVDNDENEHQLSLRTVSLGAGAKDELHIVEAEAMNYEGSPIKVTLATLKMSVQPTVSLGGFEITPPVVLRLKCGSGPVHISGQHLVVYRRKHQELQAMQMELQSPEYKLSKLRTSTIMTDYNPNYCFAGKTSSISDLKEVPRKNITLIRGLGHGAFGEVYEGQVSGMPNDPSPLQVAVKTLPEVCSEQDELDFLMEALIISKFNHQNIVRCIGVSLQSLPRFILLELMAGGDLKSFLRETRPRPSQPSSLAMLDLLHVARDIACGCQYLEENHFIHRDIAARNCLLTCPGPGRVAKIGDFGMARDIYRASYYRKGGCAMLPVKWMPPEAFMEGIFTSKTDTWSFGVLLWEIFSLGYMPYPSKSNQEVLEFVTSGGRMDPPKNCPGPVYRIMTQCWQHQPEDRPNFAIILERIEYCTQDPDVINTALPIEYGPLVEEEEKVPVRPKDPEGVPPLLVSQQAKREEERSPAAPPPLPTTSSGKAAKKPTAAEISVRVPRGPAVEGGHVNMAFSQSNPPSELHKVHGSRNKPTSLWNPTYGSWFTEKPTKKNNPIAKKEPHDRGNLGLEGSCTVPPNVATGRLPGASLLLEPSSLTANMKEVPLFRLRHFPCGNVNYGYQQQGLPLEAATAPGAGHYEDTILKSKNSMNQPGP
# Experimental: Immunoblotting of phospho-NPM-ALK and total NPM-ALK from cell lysates was carried out according to the protocols provided by the antibody suppliers. In brief, after treatment of Example compounds, cells were lysed in Frak lysis buffer [10 mM Tris, pH 7.5, 1% Triton X-100, 50 mM sodium chloride, 20 mM sodium fluoride, 2 mM sodium pyrophosphate, 0.1% BSA, plus freshly prepared 1 mM activated sodium vanadate, 1 mM dithiothreitol (#165680050, ARCOS Organics, Geel, Belgium), and 1 mM PMSF (#837091, Boehringer Mannheim Biochemicals, Indianapolis, Ind.), protease inhibitors cocktail III (#539134-1Set, Calbiochem, 1:100 dilution)]. After brief sonication, the lysates were cleared by centrifugation, mixed with sample buffer and subjected to SDS-PAGE. Following transfer to membranes, the membranes were blotted with either rabbit phospho-NPM-ALK(Y664) (Cat^#3341) or ALK antibody (Cat^#3342) from Cell Signaling Technology (Beverly, Mass.), and then the HRP-conjugated goat anti-rabbit antibodies (Santa Cruz, Calif.) after washed in TBS/0.2% Tween-20. The protein bands were visualized with ECL Western Blotting detection reagents (RPN2106, Amersham Biosciences, Buckinghamshire, UK) and quantitated with gel-pro analyzer 3.1 software.
# To measure ALK tyrosine phosphorylation in cells with an ELISA assay, fluoronunc plates (Cat^#437796, Nalge Nunc, Rochester, N.Y.) were pre-coated with goat anti-mouse IgG, and incubated with the capture mouse ALK antibody (Cat^#35-4300, Zymed, Seattle, Wash.) diluted 1:1000 in Superblock (Pierce, Rockford, Ill.). Following blocking, cell lysates were added to plates and incubated overnight at 4° C. Plates were incubated with the detecting antibody, anti-phospho-ALK (Y664) (Cell Signaling Technology), diluted at 1:2000, followed by incubation with goat anti-rabbit-IgG alkaline phosphatase to amplify the detection. Wells were exposed to the fluorogenic substrate 4-MeUP (#3368-04-5, Calbiochem) and the signal quantified using a CytoFluor® (series 4000) Fluorescence Multi-Well Plate Reader (Applied Biosystems, Foster City, Calif.).
Compound,inhibition at 1 µM [1] [%],inhibition at 3 µM [1] [%],inhibition at 1 µM [2] [%],inhibition at 3 µM [2] [%],IC50 [3] [nM],IC50 [4] [nM],inhibition at 1 µM [5] [%],inhibition at 3 µM [5] [%],IC50 [6] [nM],melting point [°C]
"O=C(c1ccc(-c2cnc3c(c2)N(Cc2c(F)ccc(F)c2Cl)CCN3)cc1)N1CCC(N2CCCC2)CC1 [Example 99, {4-[1-(2-Chloro-3,6-difluorobenzyl)-1,2,3,4-tetrahydropyrido[2,3-b]pyrazin-7-yl]phenyl}-(4-(pyrrolidin-1-yl)piperidin-1-yl)methanone]",0 to 25,0 to 25,,,100 to 1000,< 100,0 to 25,0 to 25,≤ 250,93 to 95
"CN1CCN(c2ccc(-c3cnc4c(c3)N(Cc3cc(F)ccc3F)CCN4)cn2)CC1 [Example 69, 1-(2,5-Difluorobenzyl)-7-[6-(4-methylpiperazin-1-yl)pyridin-3-yl]-1,2,3,4-tetrahydropyrido[2,3-b]pyrazine]",0 to 25,0 to 25,,,1000 to 10000,< 100,0 to 25,0 to 25,751 to 1000,192 to 193
"O=C1CNc2ncc(-c3ccc(C(=O)N4CCC[C@H]4CN4CCCC4)cc3)cc2N1Cc1cc(Cl)ccc1Cl [Example 157, S-1-(2,5-Dichlorobenzyl)-7-[4-(2-[(pyrrolidin-1-yl)methyl]pyrrolidine-1-carbonyl)phenyl]-3,4-dihydro-1H-pyrido[2,3-b]pyrazin-2-one]",0 to 25,26 to 50,,,100 to 1000,< 100,0 to 25,0 to 25,251 to 500,180

# Results, then the compound that gave them:
inhibition at 1 µM [1] [%],inhibition at 3 µM [1] [%],inhibition at 1 µM [2] [%],inhibition at 3 µM [2] [%],IC50 [3] [nM],IC50 [4] [nM],inhibition at 1 µM [5] [%],inhibition at 3 µM [5] [%],IC50 [6] [nM],melting point [°C],Compound
51 to 75,76 to 100,0 to 25,0 to 25,,,,,,,"CN1CCN(c2ccc(-c3cnc4c(c3)N(Cc3c(F)ccc(F)c3Cl)CCN4)cn2)CC1 [Example 185, 1-(2-Chloro-3,6-difluorobenzyl)-7-[6-(4-methylpiperazin-1-yl)pyridin-3-yl]-1,2,3,4-tetrahydropyrido[2,3-b]pyrazine]"
26 to 50,26 to 50,,,100 to 1000,< 100,0 to 25,0 to 25,≤ 250,,"O=C(c1ccc(-c2cnc3c(c2)N(Cc2cc(Cl)ccc2Cl)CCN3)cc1)N1CCC(N2CCCC2)CC1 [Example 160, {4-[1-(2,5-Dichlorobenzyl)-1,2,3,4-tetrahydropyrido[2,3-b]pyrazin-7-yl]phenyl}-(4-(pyrrolidin-1-yl)piperidin-1-yl)methanone]"
0 to 25,26 to 50,,,100 to 1000,< 100,0 to 25,0 to 25,751 to 1000,,"O=C(c1ccc(-c2cnc3c(c2)N(Cc2c(Cl)cccc2Cl)CCN3)cc1)N1CCC(N2CCCC2)CC1 [Example 163, {4-[1-(2,6-Dichlorobenzyl)-1,2,3,4-tetrahydropyrido[2,3-b]pyrazin-7-yl]phenyl}-(4-(pyrrolidin-1-yl)piperidin-1-yl)methanone]"
26 to 50,26 to 50,0 to 25,0 to 25,1000 to 10000,< 100,,,≤ 250,157,"Fc1ccc(F)c(CN2CCNc3ncc(-c4ccnc(N5CCOCC5)c4)cc32)c1Cl [Example 186, 1-(2-Chloro-3,6-difluorobenzyl)-7-(2-morpholin-4-yl-pyridin-4-yl)-1,2,3,4-tetrahydropyrido[2,3-b]pyrazine]"

# — patent US7601716B2, “Pyridopyrazines and derivatives thereof as ALK and c-Met inhibitors” (Cephalon, Inc., priority 2006, dated 2009)
